According to patent publication US8101768B2, “Cyclic amine compound and pest control agent” (Nippon Soda Co., Ltd., priority 2004, dated 2012):

Columns and labels:
[1] = tested on: acaricide resistant citrus red mites; test: Effect on Citrus Red Mite (spray on mandarin orange leaves); assay type: in vivo; conditions: 31 ppm, emulsifiable concentrate of Formulation Example 2 sprayed, 10 female adults, 25° C., 65% humidity
Method: Effect on Citrus Red Mite
10 female adults of acaricide resistant citrus red mites were inoculated onto leaves of a mandarin orange placed on dishes, onto which each of liquid agents, diluted with water so as to adjust the respective concentration of the chemical compounds to 31 ppm according to the formulation of the emulsifiable concentrate shown in the aforementioned Formulation Example 2, was sprayed by using a rotating sparge tower. After they were left in a thermostatic chamber at 25° C. in 65% humidity for 3 days, and were then removed from the dishes, eggs laid for 3 days were investigated whether they could grow to adults or not on the eleventh day. As the results, the following chemical compounds killed 100% of the adults. 1-13, 1-15, 1-22, 1-27, 1-45, 1-54, 1-59, 1-63, 1-66, 1-69, 1-71, 1-72, 1-75, 1-80, 1-88, 1-89, 1-92, 1-93, 1-94, 1-97, 1-98, 1-100, 1-102, 1-105, 1-108, 1-133, 1-136, 1-142, 1-153, 1-181, 1-183, 1-186, 1-187, 1-188, 1-189, 1-190, 1-191,

[2] = tested on: organophosphorous agent resistant two-spotted spider mites; test: Effect on Two-spotted Spider Mite (spray on kidney bean leaves); assay type: in vivo; conditions: 125 ppm, water dispersible powder of Formulation Example 1 sprayed, 17 female adults, 25° C., 65% humidity, 3 days
Outline: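 Kidney bean first leaves bearing 17 adult female organophosphate-resistant mites were sprayed with a water-dispersible powder formulation at 125 ppm. Held 3 days at 25 °C, 65% humidity, then adult mortality scored; run in duplicate.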

SMILES | killed ... of the adults (eggs laid for 3 days investigated whether they could grow to adults on the eleventh day) [1] | rate of killed adults [2]
COC(C)OCc1cc(C(F)(F)F)ccc1O[C@@H]1[C@@H]2CC[C@H]1CN(c1ccc(C(F)(F)F)cn1)C2 (stereo partly drawn) [5-72] | 100% | 100%
N#Cc1ccc(N2C[C@H]3CC[C@@H](C2)[C@@H]3Oc2ccc(C(F)(F)F)cc2OCC2CC2)nc1 [5-120] | 100% | 100%
C=C(C)COc1cc(C(F)(F)F)ccc1OC1C2CCC1CN(c1ccc(C(F)(F)F)cn1)C2 (stereo not drawn) [5-174] | 100% | 100%
CCOCc1cc(C(F)(F)F)ccc1OC1CCN(c2ccc(C(F)(F)F)cn2)CC1 [1-66] | 100% | 100%
CCCOc1cc(C(F)(F)F)ccc1OC1CCN(c2ccc(C(F)(F)F)cn2)CC1C (stereo not drawn) [1-98] | 100% | 100%
CCC(OC)OCc1cc(C(F)(F)F)ccc1OC1C2CCC1CN(c1ccc(C(F)(F)F)cn1)C2 (stereo not drawn) [5-222] | 100% | 100%
CC1COC(c2cc(C(F)(F)F)ccc2OC2C3CCC2CN(c2ccc(C(F)(F)F)cn2)C3)O1 (stereo not drawn) [5-218] | 100% | 100%
CCCOc1cc(C(F)(F)F)ccc1OC1CCN(c2ccc(C(F)(F)F)cn2)CC1CCC (stereo not drawn) [1-191] | 100% | 100%
CC(C#N)OCc1cc(C(F)(F)F)ccc1OC1C2CCC1CN(c1ccc(C(F)(F)F)cn1)C2 (stereo not drawn) [5-230] | 100% | 100%
CCCC(O)c1cc(C(F)(F)F)ccc1OC1C2CCC1CN(c1ccc(C(F)(F)F)cn1)C2 (stereo not drawn) [5-227] | 100% | 100%
FC(F)(F)c1ccc(N2C[C@H]3CCC[C@@H](C2)[C@@H]3Oc2ccc(C(F)(F)F)cc2OCC2CC2)nc1 [7-103] | 100% | 100%
FC(F)(F)c1ccc(N2C[C@H]3CC[C@@H](C2)[C@@H]3Oc2ccc(C(F)(F)F)cc2OCC2CC2)nc1 [5-116] | 100% | 100%
CCCOc1cc(C(F)(F)F)ccc1OC1C2CCCC1CN(c1ccc(C(F)(F)F)cn1)C2 (stereo not drawn) [7-82, 90-[2-propoxy-4-(trifluoromethyl)phenoxy]-3-[5-(trifluoromethyl)-2-pyridyl]-3-azabicyclo[3.3.1]nonane] | 100% | 100%
CC=CCOc1cc(C(F)(F)F)ccc1OC1C2CCC1CN(c1ccc(C(F)(F)F)cn1)C2 (mixture of isomers) [5-175] | 100% | 100%
CCCCOc1cc(C(F)(F)F)ccc1OC1C2CCC1CN(c1ccc(C(F)(F)F)cn1)C2 (stereo not drawn) [5-224] | 100% | 100%
CCOCc1cc(C(F)(F)F)ccc1OC1C2CCC1CN(c1ccc(C(F)(F)F)cn1)C2 (stereo not drawn) [5-220] | 100% | 100%
N#Cc1ccc(O[C@@H]2[C@@H]3CC[C@H]2CN(c2ccc(C(F)(F)F)cn2)C3)c(OCC2CC2)c1 [5-121] | 100% | 100%
CC1COC(c2cc(C(F)(F)F)ccc2O[C@@H]2[C@@H]3CC[C@H]2CN(c2ccc(C(F)(F)F)cn2)C3)N1 (stereo partly drawn) [5-259] | 100% | 100%
CCCNc1cc(C(F)(F)F)ccc1OC1C2CCC1CN(c1ccc(C(F)(F)F)cn1)C2 (stereo not drawn) [5-190] | 100% | 100%
Cc1noc(-c2cc(C(F)(F)F)ccc2O[C@@H]2[C@@H]3CC[C@H]2CN(c2ccc(C(F)(F)F)cn2)C3)n1 [5-256] | 100% | 100%
CC(C)COc1cc(C(F)(F)F)ccc1OC1CCN(c2ccc(C(F)(F)F)cn2)CC1 [1-102] | 100% | 100%
CCCOc1cc(C(F)(F)F)ccc1OC1CCN(c2ccc(C(F)(F)F)cn2)CC1CC (stereo not drawn) [1-186] | 100% | 100%
FC(F)(F)c1ccc(N2CC3CCC(C2)C3Oc2ccc(C(F)(F)F)cc2C2C=CCO2)nc1 (stereo not drawn) [5-236] | 100% | 100%
CC(C)Oc1cc(C(F)(F)F)ccc1OC1CCN(c2ccc(C(F)(F)F)cn2)CC1 [1-100] | 100% | 100%
CCOC(=O)c1cc(C(F)(F)F)ccc1OC1C2CCC1CN(c1ccc(C(F)(F)F)cn1)C2 (stereo not drawn) [5-233] | 100% | 100%
CCc1cc(Cl)ccc1OC1CCN(c2ccc(C(F)(F)F)cn2)CC1 [1-54] | 100% | 100%
CC1(C)COC(c2cc(C(F)(F)F)ccc2O[C@@H]2[C@@H]3CC[C@H]2CN(c2ccc(C(F)(F)F)cn2)C3)N1 (stereo partly drawn) [5-262] | 100% | 100%
CCCOc1cc(C(F)(F)F)ccc1OC1CCN(c2ccc(C)cn2)CC1 [1-94] | 100% | 100%
FC(F)(F)c1ccc(N2CC3CCC(C2)C3Oc2ccc(C(F)(F)F)cc2C2OCCO2)nc1 (stereo not drawn) [5-215] | 100% | 100%
CCOCOCc1cc(C(F)(F)F)ccc1OC1CCN(c2ccc(C(F)(F)F)cn2)CC1 [1-71] | 100% | 100%
